{
  "source": "patent US20030170826A1",
  "about": "“Peptides for facilitating composite receptor expression and translocation of macromolecules” (priority 2001, published 2003)",
  "key": {"SupFG1 gene": {"tested_on": "SupFG1 gene", "test": "Chromosomal mutations induced in the SupFG1 gene by triplex forming oligonucleotides", "format": "cell-based", "settings": "murine cell line with SupFG1 gene in the genome; mutations/total plaques", "method": "The ability of TAK16 to facilitate translocation of oligonucleotides designed to form triplex DNA complexes with the SupFG1 sequence was tested in a murine cell line in which the SupFG1 gene is incorporated into the genome. The assay used measures chromosomal mutations induced in the SupFG1 gene by triplex forming oligonucleotides, as measured by mutations/total plaques. The ability of TAK16 to translocate triplex forming oligonucleotides was compared to that of Antennapedia (ANTP)-s-s-oligo complex and the lipid delivery system Gene Porter. The two oligonucleotides tested were AG13 (5′-AGGAA8-propylamine-3′; SEQ ID NO: 58) and AG30 (5′-AGGAAG8TGGTG5AG5AG-propylamine-3′; SEQ ID NO: 59). The groups tested were 1) control (no treatment); 2) AG13 alone; 3) AG13+Gene Porter; 4) AG13-s-s-ANTP; 5) AG13+TAK16; 6) AG30+Gene Porter; and 7) AG30+TAK16. […] It can be seen that the two highest mutation rates occurred in cells treated with AG13+TAK16 (group 5; 40×10^−5) and AG30+TAK16 (group 7; 36×10^−5)."}, "SK-BR-3 cells [1]": {"tested_on": "SK-BR-3 cells", "settings": "200 nM peptide, 15 minutes on ice", "method": "FIG. 3, comprising FIG. 3A, FIG. 3B, and FIG. 3C, is a series of images of fluorescent micrographs illustrating the effects of a cell penetrating domain on the efficiency of composite receptors binding.\nSK-BR-3 cells were collected and washed and resuspended in DPBS-BSA. Then, 5×10^4 cells were mixed with 200 nM CR1 or delta-CR1 in 40 μl DPBS-BSA and incubated 15 minutes on ice. The cell were then washed in DPBS-BSA, resuspended in 50 μl DPBS-BSA, washed, and applied to slides. Fluorescence was analyzed by fluorescence microscopy using a monochrome filter for FITC. […] FIG. 3C depicts cells incubated with […] CR1."}, "HeLa cells [2]": {"tested_on": "HeLa cells", "test": "Peptide mediated uptake of oligonucleotide FITC-O-24, FACS (FIG. 7)", "format": "cell-based, human", "settings": "peptide 0.0-150 μM, fifteen minutes at room temperature", "method": "Flow cytometric analyses of cell subpopulations for these and other experiments described herein were performed using a FACS Vantage flow cytometer (Becton-Dickinson Immunocytometry Systems, San Jose, Calif.). The cells were excited at 488 nm. The FITC fluorescence was collected through a 530/30 nm band pass filter. A minimum of ten thousand cells was interrogated in each sample. Analysis of data was performed using CellQuest software (Becton-Dickinson).\nTo detect fluorescent labeled molecules associated with cells, the cells were first harvested in DPBS, incubated with a fluorescent labeled molecule of interest at varied concentrations (e.g., oligonucleotide at 50 μM mixed with 1×10^5 cells in 10 μl DPBS), incubated for 15 minutes at room temperature, diluted with 200 μl growth medium, and then analyzed by fluorescence activated cell sorting (FACS).\nNext, various peptide sequences and domains were tested for their abilities to facilitate translocation of the oligonucleotide FITC-O-24 across a cell membrane. The peptides tested included: K16 (G4K16; SEQ ID NO: 47); TAT (G4YGRKKRRQR3; SEQ ID NO: 48); TAK8 (G4YGRKKRRQR3G4K8; SEQ ID NO: 49); TAK12 (G4YGRKKRRQR3G4K12; SEQ ID NO: 50) and TAK16/TatK16 (G4YGRKKRRQR3G4K16; SEQ ID NO: 36). HeLa cells (1×10^5) were incubated with the oligonucleotide (0.6 μl, 50 μM) in 10 μl DPBS and various concentrations of the peptides (i.e., 0.0, 1.5, 5.0, 15.0, 50.0, or 150 μM). The cells were incubated in the presence of the mixtures for fifteen minutes at room temperature and then analyzed by FACS."}, "SK-BR-3 cells [3]": {"tested_on": "SK-BR-3 cells", "settings": "60 nM CR1 or CR1R, 30 minutes on ice, sodium azide", "quoted_text": "This difference in membrane orientation can be detected using an anti-FITC antibody which cannot penetrate the cellular membrane and therefore can only bind to an FITC on the outer cell surface. For CR1, FITC is an intracellular domain. However, for CR1R, FITC is an extracellular domain. […] SK-BR-3 cells were collected and washed in DPBS with 0.5% BSA (DPBS-BSA), resuspended in DPBS-BSA with 10 mM Sodium Azide, incubated for 20 minutes at room temperature, transferred to ice. 5×10^4 cells were mixed with 60 nM CR1 or CR1R in 20 μl DPBS-BSA, incubated 30 min on ice, washed in DPBS-BSA -Azide, and then resuspended in 50 μl DPBS-BSA-Azide. Then, 50 μl of anti-antibody in DPBS-BSA-Azide (dilution 1:50) was added, the suspension incubated on ice for 30 minutes, and then the cells were washed and applied to slides. Alexa-Fluor 594 fluorescence was analyzed by microscope using monochrome filter for Cy3.5.\nThis difference in orientation can be detected using an anti-FITC antibody which cannot penetrate the cellular membrane and therefore can only bind FITC which is on the outside cell surface and not inside the cell. […] Alexa-Fluor 594 fluorescence was analyzed using a fluorescent microscope and a monochrome filter for Cy3.5."}, "SK-BR-3 cells [4]": {"tested_on": "SK-BR-3 cells", "test": "Localization of fluorescein labeled composite receptor peptides in cells, fluorescence microscopy (FIG. 1)", "format": "cell-based, human", "settings": "800 nM Tat-K16, 800 nM CR1 or 400 nM CR2, 15 minutes"}, "SK-BR-3 cells [5]": {"tested_on": "SK-BR-3 cells", "test": "Translocation of fluorescein labeled peptides containing a cell penetrating domain (FIG. 5)", "format": "cell-based, human", "settings": "800 nM peptide, fifteen minutes at 37° C."}, "SK-BR-3 cells [6]": {"tested_on": "SK-BR-3 cells", "test": "Peptide facilitated translocation of Cy3-O18 oligonucleotide, fluorescence microscopy (FIG. 6)", "format": "cell-based, human", "settings": "for Cy3 label of the oligonucleotide in cells: mixture of Cy3-oligonucleotide and fluorescein labeled peptide"}, "HeLa cells [7]": {"tested_on": "HeLa cells", "test": "TAK16 mediated uptake of FITC-O-24, fluorescence microscopy (FIG. 8)", "format": "cell-based, human", "settings": "TAK16 0.00, 0.36, 1.80 or 9.00 μM, FITC-O-24 2.5 μM"}, "HeLa cells [8]": {"tested_on": "HeLa cells", "test": "TAK16 mediated uptake of 83-mer oligonucleotide O-83-FITC, FACS and fluorescence microscopy (FIG. 9, 10)", "format": "cell-based, human", "settings": "TAK16 13.3 μM, O-83-FITC 0.00-1.8 μM"}, "HeLa cells [9]": {"tested_on": "HeLa cells", "test": "TAK16 mediated uptake of Cy3 labeled 400 bp double stranded DNA and 5 kb plasmid DNA (FIG. 11)", "format": "cell-based, human", "method": "Next, it was decided to determine whether even larger nucleotides, including double stranded (DS) DNA or plasmid DNA, could be transported into a cell. Specifically, it was determined whether TAK16 could facilitate the transport of 400 base pair (bp) double stranded DNA and a 5 kb circular plasmid DNA (pECFP; enhanced cyano fluorescent protein) into cells. The DNAs were labeled with Cy3 reagent (“Label IT” Cy3 Nucleic Acid Labeling Kit; Mirus, Madison, Wis.), according to manufacturer's directions. This protocol usually yields one label per up to ten nucleotides. To this end, HeLa cells were prepared as above and then incubated with 400 ng of plasmid DNA or 60 ng of 400 bp DNA and with TAK16 (12 μM)."}, "HeLa cells [10]": {"tested_on": "HeLa cells", "test": "Peptide-oligo mediated uptake of avidin-FITC (FIG. 12)", "format": "cell-based, human"}, "HeLa cells [11]": {"tested_on": "HeLa cells", "test": "Peptide-oligo mediated uptake of horseradish peroxidase-avidin (HPA), cytochemical analysis (FIG. 13)", "format": "cell-based, human", "settings": "TAK16 and Bio-O-22, 30 minutes at 37° C.", "method": "To further determine the ability of a fusion peptide to facilitate transport of a molecule associated with a nucleic acid across a cell membrane, TAK16 was tested for its ability to mediate transport of another protein. In this example, the protein horseradish peroxidase (HRP) was tested. The HRP was conjugated to avidin to yield 120 kD Horseradish Peroxidase-Avidin (HPA). Cells were obtained as above. HPA and Bio-O-22 were added to cells in DPBS at final concentrations of 8 μM and 8 μM, respectively, and then incubated for 15 minutes at room temperature. Then, 2.5 μl of the mix was added to 2×10^5 HeLa cells in 10 μl DPBS. Next, 12.5 μl of 100 μM TAK16 in DPBS was added to the mixture and incubated for 30 minutes at 37° C. Then the cells were washed and applied to slides. Cells on the slides were treated with 30 μl peroxidase suppressor solution to suppress endogenous peroxidase, washed with DPBS, treated with 30 μl Metal Enhanced DAB Substrate Working Solution, incubated for 15 minutes at room temperature, and then subjected to microscopic analysis. […] HPA activity or presence was detected using the DAB kit and the manufacturer's protocol."}, "[12]": {"test": "Intracellular transport of beta-galactosidase conjugated to an oligonucleotide", "format": "cell-based", "settings": "similar experiments"}},
  "note": "Ends that are not written are not given here. {propylamine} = propylamine end group; fluorescein = fluorescein label; fluor = fluorescein label",
  "data": [
    {"molecule": "5′-AGGAA8-propylamine-3′ (AGGAAAAAAAAA; 3' {propylamine}, sugars by position and backbone not given here) [AG13]", "values": [
      {"measurement": "chromosomal mutation frequency induced in the SupFG1 gene", "setting": "SupFG1 gene", "result": "8 ×10^−5"}
    ]},
    {"molecule": "FITC-G3G3AAL3A19WK8-biotin [delta-CR1]", "values": [
      {"measurement": "FITC fluorescence on the cell membrane", "setting": "SK-BR-3 cells [1]", "result": "low level of fluorescence on the cell membrane"}
    ]},
    {"molecule": "G4K16 (GGGGKKKKKKKKKKKKKKKK; FITC-0-24 oligonucleotide cell membrane translocation facilitating peptide) [reference compound]", "values": [
      {"measurement": "facilitating transport of FITC-O-24 across the cell membrane", "setting": "HeLa cells [2]", "result": "Neither TAT, nor adapter domain, K16, were able to efficiently facilitate transport"}
    ]},
    {"molecule": "G4YGRKKRRQR3G4K8 (GGGGYGRKKRRQRRRGGGGKKKKKKKK; Human immunodeficiency virus type 1) [TAK8]", "values": [
      {"measurement": "facilitating transport of FITC-O-24 across the cell membrane", "setting": "HeLa cells [2]", "result": "decreased ability to facilitate transport"}
    ]},
    {"molecule": "G4YGRKKRRQR3G4K12 (GGGGYGRKKRRQRRRGGGGKKKKKKKKKKKK; Human immunodeficiency virus type 1) [TAK12]", "values": [
      {"measurement": "facilitating transport of FITC-O-24 across the cell membrane", "setting": "HeLa cells [2]", "result": "decreased ability to facilitate transport"}
    ]},
    {"molecule": "biotin-G3YGRKKRRQR3G3AAL3A19WK8-FITC [CR1R]", "values": [
      {"measurement": "fluorescence of anti-fluorescein (anti-FITC) antibodies, Alexa-Fluor 594", "setting": "SK-BR-3 cells [3]", "result": "higher"}
    ]},
    {"molecule": "fluor-G3YGRKKRRQR3G3AAL3A19WK8-biotin [CR1]", "values": [
      {"measurement": "localization of fluorescein labeled peptide in the cell", "setting": "SK-BR-3 cells [4]", "result": "localized at the periphery of the cells, in a speckled distribution"},
      {"measurement": "FITC fluorescence on the cell membrane", "setting": "SK-BR-3 cells [1]", "result": "high levels of fluorescence occur on the cell membrane"}
    ]},
    {"molecule": "fluor-G4YGRKKRRQR3G4K16 (fluorescein-GGGGYGRKKRRQRRRGGGGKKKKKKKKKKKKKKKK) [Tat-K16]", "values": [
      {"measurement": "localization of fluorescein labeled peptide in the cell", "setting": "SK-BR-3 cells [4]", "result": "located throughout the cell"},
      {"measurement": "entry of peptide into the cell and localization", "setting": "SK-BR-3 cells [5]", "result": "entered the cell and were located in both the cytoplasm and the nucleus"},
      {"measurement": "oligonucleotide Cy3-O18 translocation through the cell membrane", "setting": "SK-BR-3 cells [6]; 500 nM oligonucleotide and 80 nM peptide, fifteen minutes at 37° C.", "result": "facilitated"},
      {"measurement": "Cy3 label of the oligonucleotide in cells", "setting": "SK-BR-3 cells [6]", "result": "located in the cytoplasm as well as in the nucleus"},
      {"measurement": "facilitating transport of FITC-O-24 across the cell membrane", "setting": "HeLa cells [2]", "result": "most efficient"},
      {"measurement": "fluorescent intensity associated with FITC-O-24", "setting": "HeLa cells [7]", "result": "increased in the cells incubated with increased amounts of TAK16 peptide"},
      {"measurement": "cell associated fluorescent intensity of O-83-FITC (FACS)", "setting": "HeLa cells [8]; FACS", "result": "increased with increasing amounts of the 83-mer"},
      {"measurement": "cellular associated fluorescence of O-83-FITC (microscopy)", "setting": "HeLa cells [8]; fluorescent microscopic analysis", "result": "increased cellular associated fluorescence"},
      {"measurement": "cells with uptake of large double stranded DNA molecules, linear and circular", "setting": "HeLa cells [9]; TAK16 12 μM", "result": "~100", "unit": "%"},
      {"measurement": "uptake of Cy3 labeled 400 bp DS DNA or plasmid DNA (fluorescence)", "setting": "HeLa cells [9]; […], TAK16 12 μM or no peptide", "result": "obvious fluorescence"},
      {"measurement": "fluorescence of avidin-FITC in cells, with oligonucleotide Bio-O-22", "setting": "HeLa cells [10]; TAK16 + Bio-O-22 + avidin-FITC, 20 minutes at 37° C.", "result": "much higher levels of fluorescence"},
      {"measurement": "fluorescence of avidin-FITC in cells, no oligonucleotide", "setting": "HeLa cells [10]; TAK16 and avidin-FITC, without Bio-O-22", "result": "did not exhibit appreciable levels of fluorescence"},
      {"measurement": "HPA uptake, with oligonucleotide Bio-O-22", "setting": "HeLa cells [11]", "result": "facilitated"},
      {"measurement": "intracellular transport of a 140 kD protein (beta-galactosidase) conjugated to an oligonucleotide", "setting": "[12]", "result": "able to facilitate intracellular transport"}
    ]},
    {"molecule": "fluor-G4YGRKKRRQR (fluorescein-GGGGYGRKKRRQR) [Tat, reference compound]", "values": [
      {"measurement": "Cy3 label of the oligonucleotide in cells", "setting": "SK-BR-3 cells [6]", "result": "not detected"}
    ]},
    {"molecule": "fluor-G4YGRKKRRQR3G3MPNLWFL2FLGLVA2MQL5FL3F2LVYW DHFECSCTGLPF (peptide) fluor-GGGGYGRKKRRQRRRGGGMPNLWFLLFLGLVAAMQLLLLLFLLLFFLVYWDHFECSCTGLPF", "values": [
      {"measurement": "localization of fluorescein labeled peptide in the cell", "setting": "SK-BR-3 cells [4]", "result": "localized in a few foci at the cell surface"}
    ]}
  ]
}
